Experimental findings from paper PMC9103758 (International Journal of Molecular Sciences, 2022) are described below.

The test system of series [1] is NIH-3T3 cells. In words: Cell viability (MTS/MTT) in NIH-3T3 cells. It counts as cell-based. Particulars: 24 h, up to/at 30 μM. As for the experimental part:
[…]. (A) Structure of VI-116. (B) Representative YFP fluorescence traces. The inhibitory effects of VI-116 on VRAC activity were determined using YFP fluorescence assay in LN215 cells. VRAC was activated by application of […] solution for 5 min. (C) Summary of VRAC dose-response (mean ± S.E., n = 4). (D) Summary of VRAC dose−response with 10% FBS (mean ± S.E., n = 4). […].
NIH-3T3 cells were plated on 96-well microplates. After 24 h incubation, cells were treated with VI-116 or DCPIB and incubated for 24 h. The culture medium and the compounds were changed every 12 h. To assess cell proliferation, the cells were incubated with MTS for 1 h. The soluble formazan produced by the cellular reduction of MTS was quantified by measuring the absorbance at 490 nm with an Infinite M200 (Tecan, Grödig, Austria) microplate reader. MTS assay was performed using a CellTiter 96 Aqueous One Solution Cell Proliferation Assay kit (Promega, Madison, WI, USA).

Series [2] addresses T1, VRAC-mediated chloride current (ICl, swell) in HEK293T cells (Homo sapiens, UniProt Q8IWT6).
T1 construct: endogenous in cells; host or cells: HEK293T
T1 sequence (Q8IWT6 1-810): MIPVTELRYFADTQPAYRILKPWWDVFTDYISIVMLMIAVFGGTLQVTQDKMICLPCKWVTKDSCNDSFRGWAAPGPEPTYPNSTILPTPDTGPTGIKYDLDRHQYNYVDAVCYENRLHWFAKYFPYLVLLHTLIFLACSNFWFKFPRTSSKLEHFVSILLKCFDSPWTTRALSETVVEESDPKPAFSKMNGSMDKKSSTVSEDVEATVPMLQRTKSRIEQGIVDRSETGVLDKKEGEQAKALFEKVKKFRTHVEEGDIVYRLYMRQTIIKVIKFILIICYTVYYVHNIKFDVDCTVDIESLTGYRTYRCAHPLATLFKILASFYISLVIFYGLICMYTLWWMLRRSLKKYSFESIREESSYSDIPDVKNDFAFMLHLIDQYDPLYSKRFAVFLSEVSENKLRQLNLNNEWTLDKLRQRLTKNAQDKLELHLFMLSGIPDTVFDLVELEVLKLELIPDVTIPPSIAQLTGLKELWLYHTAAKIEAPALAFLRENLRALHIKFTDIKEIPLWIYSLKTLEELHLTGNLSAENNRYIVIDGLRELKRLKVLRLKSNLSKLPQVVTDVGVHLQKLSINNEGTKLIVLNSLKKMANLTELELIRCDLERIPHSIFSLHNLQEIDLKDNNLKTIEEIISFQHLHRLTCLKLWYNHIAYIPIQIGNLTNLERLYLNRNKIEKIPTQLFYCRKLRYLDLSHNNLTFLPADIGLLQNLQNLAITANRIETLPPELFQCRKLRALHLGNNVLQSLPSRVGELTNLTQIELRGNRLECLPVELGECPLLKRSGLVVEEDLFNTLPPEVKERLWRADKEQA
In words: Whole-cell voltage-clamp of ICl,swell in HEK293T cells. It counts as cell-based. Particulars: dose-dependent.
Protocol: (A) Whole-cell membrane currents were recorded at a holding potential of −50 mV by voltage steps ranging from −120 to 120 mV (in steps of 20 mV) in HEK293T cells. […] (C) Whole-cell VRAC currents were recorded at a holding potential of −50 mV by voltage steps ranging from −100 to 100 mV (in steps of 20 mV) in LN215 cells.
For volume-regulated anion channel (VRAC) currents measurement, the isotonic bath solution contained (in mM): 150 NaCl, 6 KCL, 1.5 CaCl2, 1 MgCl2, 10 glucose, 1 HEPES, and pH 7.4 with NaOH (320 mOsm). […] The pipette solution contained (in mM): 40 CsCl, 100 Cs-methanesulfonate, 0.5 EGTA, 1 MgCl2, 1.9 CaCl2, 5 EGTA, 4 Tris−ATP, 10 HEPES, and pH 7.2 with CsOH (290 mOsm). Pipettes were pulled from borosilicate glass and had resistances of 3–5 MΩ after fire polishing. Seal resistances were between 3 and 10 GΩ. The liquid junction potential (~2.4 mV) was not corrected. After establishing the whole-cell configuration, whole-cell capacitance and series resistance were compensated with the amplifier circuitry. VRAC was activated by exposing LN215 cells to a 25% hypotonic bath solution. Whole-cell currents were elicited by applying hyperpolarizing and depolarizing voltage pulses from a holding potential of 0 mV to potentials between −100 mV and +100 mV or −120 mV and +120 mV in steps of 20 mV. Recordings were made at room temperature. […]

Series [3] deals with ATP-induced intracellular calcium signaling in FRT cells. In words: Intracellular calcium measurement (Fluo-4) in FRT cells. The series is classed as cell-based, rat. Particulars: 100 μM ATP. As for the experimental part: (A) Representative Fluo4 fluorescence traces from 3 independent experiments in FRT cells. […] (B,C) Representative apical membrane currents from 3–4 independent experiments in FRT cells expressing human ANO1. […] (D) Representative YFP fluorescence traces in FRT cells expressing human ANO2. […] (E) Representative Fluo4 fluorescence traces from 3 independent experiments in FRT cells. Cells were pretreated with DCPIB for 10 min followed by application of 100 μM ATP. (F) Representative apical membrane currents in FRT cells expressing human ANO1.
FRT cells were plated on 96-well black-walled microplates and loaded with Fluo-4 NW according to the manufacturer’s protocol (Invitrogen, Carlsbad, CA, USA). […] The 96-well plates were transferred to a plate reader for fluorescence assay.

For series [4], the target named is T2, VRAC in HeLa cells (Homo sapiens, UniProt Q8IWT6).
T2 construct: endogenous in cells; host or cells: HeLa cervical cancer cells stably expressing the YFP halide sensor
T2 sequence (Q8IWT6 1-810): T1 sequence (Q8IWT6 1-810)
It counts as cell-based.

Series [5] has as its target T3, VRAC (Homo sapiens, UniProt Q8IWT6).
T3 sequence (Q8IWT6 1-810): T1 sequence (Q8IWT6 1-810)

Entries after “also recorded” stand apart in the source; their conditions may differ.

`COc1cccc(C(c2c(O)c3ccccc3oc2=O)c2c(O)c3ccccc3oc2=O)c1O` [VI-116, 3,3′-((2-hydroxy-3-methoxyphenyl)methylene)bis(4-hydroxy-2H-chromen-2-one)]: the “effect on cell viability” value in series [1] is “did not affect cell viability”. Further, the “effect on hypotonic perfusion activated ICl, swell” value in series [2] was “completely blocked”. Moreover, in series [3] (30 μM), the “effect on intracellular calcium signaling” value is “weak inhibitory effect”. Also, the “effect on ATP-induced increase in intracellular calcium levels” value in series [3] (up to 10 μM) is “no effect; also recorded: did not affect”. Further, the IC50 (as a rule, the point on the concentration scale where inhibition reaches its midpoint) in series [4] turned out to be 1.2 ± 0.08 µM. Moreover, the “effect on VRAC” value in series [5] (10 μM) is recorded as “completely inhibits”. Besides, the “effect on VRAC activity (VRAC-mediated I- quenching)” value in series [5] (LN215 cells) was “fully inhibited”. The “decrease of potency on VRAC with 10% FBS compared to without FBS” value in series [5] (LN215 cells, 10% FBS) was determined as 5.4 fold.
